Data on two molecules can be found in US11331294B2, “Benzoquinone derivative E3330 in combination with chemotherapeutic agents for the treatment of bladder cancer” (Indiana University Research and Technology Corporation, priority 2007, dated 2022).

One may read the inhibition as the drop in the measured response relative to a control, in per cent. Lower therefore signals a response near the control.

Assay [1] has as its system SW780, T24, UC3 cell lines. Briefly: Methylene blue cell growth assay, bladder cancer cell panel. Format: cell-based, human. As for the experimental part:
FIGS. 31A & 31B. Treatment with APE1/Ref-1 inhibitors potently blocks bladder cancer cell proliferation and activated Caspase 3/7. […] The IC50 values for FIG. 31A were determined using the methylene blue assay, n=4. […] T24 and UC3 cells were treated with APX2009 and APX2014 at the IC50 and IC90 and monitored over time for activation of capsase 3/7 by an increase in red fluorescence. Time course graphs are shown in FIG. 31B and representative images at 48 hr are shown in FIG. 32A (described more fully below), n=3-4.
Bladder cancer cell proliferation was inhibited and apoptosis was induced by potent, selective redox inhibitors of APE1/Ref-1.

Assay [2] has as its system STAT3. Briefly: STAT3-driven luciferase reporter. Conditions: T24 and UC3 cells induced with IL-6, IC50 concentration, 24 h. Format: cell-based, human. As for the experimental part: FIGS. 36A-36H. […] In cytokine-induced T24 and UC3 cells NFκB-driven luciferase (FIG. 36A), STAT3-driven luciferase (FIG. 36B), and AP-1-driven luciferase (FIG. 36C) were quantified and normalized via Renilla following treatment with the corresponding cell growth-inhibitory IC50 concentrations. T24 cells were treated with APX2009 (8.5 μM) and APX2014 (6.5 μM), and UC3 cells were treated with APX2009 (6.1 μM) and APX2014 (4.6 μM) for 24 h. (*-p<0.05 APX treated vs vehicle, n=4). […] In the panels of FIGS. 36F & 36G, co-expression of survivin and APE1/Ref-1 was analyzed in superficial (FIG. 36F) and invasive human bladder tumors (FIG. 36G) in patients, and found nearly universal overlap of positivity in both in human samples. This was also true in cisplatin-refractory patients from the tissue microarray specimens (FIG. 36H).
The transcriptional activity of NFκB, STAT3, and AP-1 is under redox control by APE1/Ref-1. Therefore, NFκB, STAT3, or AP-1 transcriptional activity was quantified following treatment with APE1/Ref-1 redox inhibitors (FIGS. 36A-36C).

The subject of assay [3] is RP-B-02 spheroids. Nature of the assay: 3D spheroid growth assay RP-B-02. In kind it is cell-based, human. Conditions: p<0.05. The text has this:
RP-B-01 and RP-B-02 cells were resuspended in normal growth media containing 3% Reduced Growth Factor Matrigel (BD Biosciences) at a cell density of 1,500 and 3,000 cells/well, respectively and plated in ultra-low adherence 96-well plates (Corning).
Spheroids were allowed to form and then treated on days 4, 8, and 12 following plating with media containing 5% serum, 3% Reduced Growth Factor Matrigel, and APE1/Ref-1 inhibitors. Vehicle control, DMSO, was less than 0.01% of the volume, and was equivalent in each well. On Day 15, Alamar blue reagent (LifeTechnologies) was added to each well (10 μL/well) and incubated for 24 hours.
In order to mimic tumor growth more accurately in a relevant microenvironment and in a more robust model for predicting response to treatment, a three-dimensional (3D) culture model of patient-derived RP-B-01 and RP-B-02 bladder cancer cells was used. Both RP-B-01 and RP-B-02 cell lines are transitional cell carcinoma staged as T4bN1Mx and T2bN0Mx Grade III tumors, respectively.

Assay [4] has as its system multiple myeloma cells. Briefly: Phospho-histone H2AX western blot (DNA double stranded breaks). As to conditions: combination with melphalan. In kind it is cell-based. As for the experimental part:
APX3330 in combination with chemotherapeutic Melphalan. […] Synergistic plots made using CalcuSyn software. APX3330 was either given alone or in combination with melphalan. As an indicator of DNA double stranded breaks (DSBs), the phosphorylation of histone H2AX at Ser^139 was measured with a phosphorylation-specific H2AX antibody from Upstate Cell Signaling Solutions (Waltham, Md.). Cells were treated with melphalan alone or melphalan plus APX3330. After drug treatment, exponentially growing cells were harvested, washed in cold PBS, and lysed in about 100 μL RIPA assay buffer as described above. Protein was quantified and electrophoresed in SDS gel-loading buffer on a 12% SDS-polyacrylamide gel. Mouse monoclonal anti-phosphohistone H2AX (about 1:1000) or anti-actin antibody (about 1:1000; as a loading control, LabVision Corp., NeoMarkers, Fremont, Calif.) was used to probe for protein levels as described previously. Bands were detected using a chemiluminescence kit from Roche Applied Biosciences (Indianapolis, Ind.). The bands were visualized using Bio-Rad Chemidoc XRS (Hercules, Calif.) and quantitated using Chemidoc software, Quantity One 4.6.1.
In general terms: A western blot detects proteins with antibodies after separation by electrophoresis.

The subject of assay [5] is subretinal neovascularization (SNV) in vldlr-/- retina. Nature of the assay: SNV in vldlr-/- knockout mice assay. Format: in vivo. As to conditions: single intravitreal injection, one week after treatment. Here is the method:
SNV in vldlr−/− knockout mice assay. […] Experiments were carried out in very-low-density lipoprotein receptor (vldr) knockout mice to determine the effect of APX3330 on inhibition of SNV development in the vldlr−/− mutant. Each animal received a single intravitreal injection of 1 μl volume of BSS as a vehicle control and the fellow eye received 1 μl of […] APX3330. The final concentration of APX3330 was equivalent to approximately 20 μM in the retina. Quantitative measurement of SNV was carried out one week after the treatment in the whole mount retina after lectin-FITC staining. […] The apparent increase of SNV after antibody injection could be due to foreign protein triggered immune response which has been reported before (Tator et al., 2008). APX3330 reduced the number of SNV at a statistically significant level (p<0.01 in paired t-test). […] The Ape1/Ref-1 inhibitor offers a new approach to control angiogenesis for advanced macular degeneration (AMD) treatment.

In assay [6] the target is redox function of Ape1/Ref-1 (Homo sapiens, UniProt P27695). Nature of the assay: Selective inhibition of the redox function of Ape1/Ref-1.
Chain of redox function of Ape1/Ref-1 (P27695 whole entry): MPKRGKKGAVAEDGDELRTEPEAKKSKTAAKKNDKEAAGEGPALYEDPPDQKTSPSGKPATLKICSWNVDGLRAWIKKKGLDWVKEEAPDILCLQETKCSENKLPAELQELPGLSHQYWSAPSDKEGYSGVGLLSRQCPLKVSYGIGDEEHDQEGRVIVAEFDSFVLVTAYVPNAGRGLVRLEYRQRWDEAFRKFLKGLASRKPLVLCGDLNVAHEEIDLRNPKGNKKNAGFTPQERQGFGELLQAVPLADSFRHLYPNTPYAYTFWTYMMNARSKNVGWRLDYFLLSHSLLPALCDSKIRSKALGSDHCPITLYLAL
Assay [7] relates to retinal vascular endothelial cells (RVEC). Briefly: MTS proliferation assay of retinal endothelial cells. Format: cell-based, mouse. Here is the method: Inhibition of endothelial cell proliferation. […] Young adult mouse retinal tissues were dissected out and digested. Cells were plated in 24 well plates and grown to confluence, then seeded to 96 well plates for assay. Three days after seeding, the total number of cells was assayed by MTS measurement (Promega). The proliferation rate was calculated according to manufacturer's instructions. Proliferations of RECs from different groups were compared for statistical significance. APX3330 (RN3-3) blocked REC proliferation indicative of anti-blood vessel formation effects. (FIG. 10)
APX3330 10-100 μM decreased cell proliferation of retinal vascular endothelial cells (RVEC) (FIG. 11). In basal media, APX3330 inhibited REVC cell proliferation at all 4 concentrations tested, 10 μM-57%, 25 μM-93% (p<0.01).

With `CCC/C(=C\C1=C(OC)C(=O)c2ccccc2C1=O)C(=O)N(CC)CC` [APX2009, [(2E)-2-[(3-methoxy-1,4-dioxo-1,4-dihydronaphthalen-2-yl)methylidene]-N,N-diethylpentanamide]], in assay [1], the “fold lower IC50 than APX3330” value is listed as 7 fold. In assay [2], the STAT3 transcriptional activity entry is “significantly blocked”. Further, the “potency in RP-B-02 cells in 3D culture relative to APX3330” value in assay [3] was “more potent in the RP-B-02 cells than parent compound APX3330”.

With `CCCCCCCCC/C(=C\C1=C(C)C(=O)C(OC)=C(OC)C1=O)C(=O)O` [APX3330], the “DNA double stranded breaks (phospho-H2AX), melphalan plus APX3330 compared to melphalan alone” value in assay [4] is given as “increase in DSBs”. In assay [5], the “individuals with reduced number of SNV in treated eye” value was 17/20 and the “reduction of number of SNV” value is around 30%. Moreover, the “inhibition of the redox function of Ape1/Ref-1” value in assay [6] is recorded as “selectively inhibited”. In assay [7] (Mus musculus, Endothelial cell, 10 μM, basal media), at 10 µM the inhibition was 57%. The inhibition at 25 µM in assay [7] (Mus musculus, Endothelial cell, 25 μM, basal media) came out at 93%. For the same molecule, in assay [7] (about 10-100 μM, with or without bFGF), the “retinal endothelial cell proliferation” value is listed as “decreased retinal endothelial cell proliferation”.
